Experimental data published in patent US9540343B2 (Gilead Sciences, Inc., priority 2011, dated 2017).

How the values were obtained:
in vitro = details: human, uninfected MT-4 cells, CC50 (nM), same protocol as Test A, CellTiter-Glo
Procedure, shortened: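 Cytoprotection read-out: CellTiter-Glo chemiluminescence after 5 days at 37 °C of HIV-IIIb-infected MT-4 cells (m.o.i. 0.003) with compound in 10-point 3-fold dilutions, quadruplicate, 10% FBS. Cytotoxicity (CC50) measured identically without virus.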

HIV-IIIb = test: Test A: Antiviral assay in MT4 cells; type: cell-based, HIV-1; details: Human immunodeficiency virus 1, IIIB, MT4, 120 h, read-out: % inhibition at 2 μM, percent inhibition of virus-induced cell killing, from dose response curve at 2 uM drug; MT-4 cells infected with HIV-IIIb, 5 days, CellTiter-Glo

| SMILES | CC50 at 5 days (in vitro) [nM] | inhibition at 2 µM (HIV-IIIb) [%] |
| --- | --- | --- |
| O=C(Cc1c[nH]c2ccc(F)cc12)N[C@@H](Cc1cc(F)cc(F)c1)c1ncccc1-c1cnc2[nH]ccc2c1 [Example 430, (S)—N-(1-(3-(1H-pyrrolo[2,3-b]pyridin-5-yl)pyridin-2-yl)-2-(3,5-difluorophenyl)ethyl)-2-(5-fluoro-1H-indol-3-yl)acetamide] | 26300 | 31 |
| NC(=O)c1cccc(-c2cccnc2[C@H](Cc2cc(F)cc(F)c2)NC(=O)Cc2c[nH]c3cc(C4CC4)c(=O)[nH]c23)c1 [Example 338C, (S)-3-(2-(1-(2-(6-cyclopropyl-5-oxo-4,5-dihydro-1H-pyrrolo[3,2-b]pyridin-3-yl)acetamido)-2-(3,5-difluorophenyl)ethyl)pyridin-3-yl)benzamide] | > 53000 | 35 |
| CC(C)(C)OC(=O)N1CCC[C@H]1C(=O)N[C@@H](Cc1cc(F)cc(F)c1)c1ncccc1-c1ccc(F)c(C(N)=O)c1 [Example 171, (S)-tert-butyl 2-((S)-1-(3-(3-carbamoyl-4-fluorophenyl)pyridin-2-yl)-2-(3,5-difluorophenyl)ethylcarbamoyl)pyrrolidine-1-carboxylate] | 11900 | 4 |
| NC(=O)c1cc(-c2cccnc2[C@H](Cc2cc(F)cc(F)c2)NC(=O)Cn2cnc3c(=O)[nH]ccc32)ccc1F [Example 336, (S)-5-(2-(2-(3,5-difluorophenyl)-1-(2-(4-oxo-4,5-dihydro-1H-imidazo[4,5-c]pyridin-1-yl)acetamido)ethyl)pyridin-3-yl)-2-fluorobenzamide] | > 53200 | 0 |
| COc1ccc(-c2cccnc2[C@H](Cc2cc(F)cc(F)c2)NC(=O)Cc2c[nH]c3ccc(F)cc23)cn1 [Example 64, (S)—N-(2-(3,5-difluorophenyl)-1-(6′-methoxy-3,3′-bipyridin-2-yl)ethyl)-2-(5-fluoro-1H-indol-3-yl)acetamide] | 21100 | 88 |
| NC(=O)c1cc(-c2cccnc2[C@H](Cc2cc(F)cc(F)c2)NC(=O)Cc2c[nH]c3ccc(F)cc23)ccc1F [Example 55F, (S)-5-(2-(2-(3,5-difluorophenyl)-1-(2-(5-fluoro-1H-indol-3-yl)acetamido)ethyl)pyridin-3-yl)-2-fluorobenzamide] | 21600 | 101 |
| NCc1ccc2[nH]cc(CC(=O)N[C@@H](Cc3cc(F)cc(F)c3)c3ncccc3-c3cccc(C(N)=O)c3)c2c1 [Example 556, (S)-3-(2-(1-(2-(5-(aminomethyl)-1H-indol-3-yl)acetamido)-2-(3,5-difluorophenyl)ethyl)pyridin-3-yl)benzamide] | 47800 | 83 |
| O=C(Cc1c[nH]c2ccc(=O)[nH]c12)N[C@@H](Cc1cc(F)cc(F)c1)c1ncccc1-c1ccc(Cl)cc1 [Example 37, (S)—N-(1-(3-(4-chlorophenyl)pyridin-2-yl)-2-(3,5-difluorophenyl)ethyl)-2-(5-oxo-4,5-dihydro-1H-pyrrolo[3,2-b]pyridin-3-yl)acetamide] | 34200 | 84 |
| NC(=O)c1cc(-c2cccnc2[C@H](Cc2cc(F)cc(F)c2)NC(=O)Cc2ccccc2)ccc1F [Example 592] | > 53200 | 8 |
| Nc1ncc(-c2cccnc2[C@H](Cc2cc(F)cc(F)c2)NC(=O)Cn2nc(C(F)F)c3c2C(F)(F)CCC3(F)F)cc1C(F)(F)F [Example 371, (S)—N-(1-(6′-amino-5′-(trifluoromethyl)-3,3′-bipyridin-2-yl)-2-(3,5-difluorophenyl)ethyl)-2-(3-(difluoromethyl)-4,4,7,7-tetrafluoro-4,5,6,7-tetrahydro-1H-indazo-1-yl)acetamide] | 7590 | 83 |
| Cc1ccccc1-c1cccnc1[C@H](Cc1cccc(F)c1)NC(=O)Cc1c[nH]c2ccc(O)cc12 [Example 24, (S)—N-(2-(3-fluorophenyl)-1-(3-o-tolylpyridin-2-yl)ethyl)-2-(5-hydroxy-1H-indol-3-yl)acetamide] | 24800 | 39 |
| NC(=O)c1cccc(-c2cccnc2[C@H](Cc2cc(F)cc(F)c2)NC(=O)Cc2c[nH]c3ccccc23)c1 [Example 480, (S)-3-(2-(1-(2-(1H-indol-3-yl)acetamido)-2-(3,5-difluorophenyl)ethyl)pyridin-3-yl)benzamide] | 27800 | 93 |
| CCOCc1cn(CC(=O)N[C@@H](Cc2cc(F)cc(F)c2)c2ncccc2-c2ccc(F)c(C(N)=O)c2)nc1C(F)(F)F [Example 330, (S)-5-(2-(2-(3,5-difluorophenyl)-1-(2-(4-(ethoxymethyl)-3-(trifluoromethyl)-1H-pyrazol-1-yl)acetamido)ethyl)pyridin-3-yl)-2-fluorobenzamide] | 29300 | 3 |
| NC(=O)c1cc(-c2cccnc2[C@H](Cc2cc(F)cc(F)c2)NC(=O)Cn2nc(C(F)F)c3c2C(F)(F)CCC3O)ccc1F (stereo partly drawn) [Example 334, 5-(2-((1S)-1-(2-(3-(difluoromethyl)-7,7-difluoro-4-hydroxy-4,5,6,7-tetrahydro-1H-indazol-1-yl)acetamido)-2-(3,5-difluorophenyl)ethyl)pyridin-3-yl)-2-fluorobenzamide] | 26500 | 63 |
| Cc1nc(C(F)(F)F)nn1CC(=O)N[C@@H](Cc1cc(F)cc(F)c1)c1ncccc1-c1ccc(F)c(C(N)=O)c1 [Example 374, (S)-5-(2-(2-(3,5-difluorophenyl)-1-(2-(5-methyl-3-(trifluoromethyl)-1H-1,2,4-triazol-1-yl)acetamido)ethyl)pyridin-3-yl)-2-fluorobenzamide] | > 53200 | 5 |
| COC(=O)c1nn(CC(=O)N[C@@H](Cc2cc(F)cc(F)c2)c2ncccc2-c2ccc(F)c(C(N)=O)c2)c2c1COC2 [Example 452C, (S)-methyl 1-(2-((1-(3-(3-carbamoyl-4-fluorophenyl)pyridin-2-yl)-2-(3,5-difluorophenyl)ethyl)amino)-2-oxoethyl)-4,6-dihydro-1H-furo[3,4-c]pyrazole-3-carboxylate] | 9070 | 4 |
| CC(C)(C)OC(=O)Nc1ccc2[nH]cc(CC(=O)N[C@@H](Cc3cc(F)cc(F)c3)c3ncccc3-c3cccc(C(N)=O)c3)c2c1 [Example 496B, (S)-tert-butyl 3-(2-(1-(3-(3-carbamoylphenyl)pyridin-2-yl)-2-(3,5-difluorophenyl)ethylamino)-2-oxoethyl)-1H-indol-5-ylcarbamate] | 18400 | 17 |
| NC(=O)c1cc(-c2cccnc2[C@H](Cc2cc(F)cc(F)c2)NC(=O)Cn2cc(C(F)(F)F)nc2COCc2ccccc2)ccc1F [Example 91B, (S)-5-(2-(1-(2-(2-(benzyloxymethyl)-4-(trifluoromethyl)-1H-imidazol-1-yl)acetamido)-2-(3,5-difluorophenyl)ethyl)pyridin-3-yl)-2-fluorobenzamide] | 22000 | 17 |
| NC(=O)c1cccc(-c2cncnc2[C@H](Cc2cc(F)cc(F)c2)NC(=O)Cc2c[nH]c3ccc(O)cc23)c1 [Example 327, (S)-3-(4-(2-(3,5-difluorophenyl)-1-(2-(5-hydroxy-1H-indol-3-yl)acetamido)ethyl)pyrimidin-5-yl)benzamide] | > 53200 | 94 |
| NC(=O)c1cc(-c2cccnc2[C@H](Cc2cc(F)cc(F)c2)NC(=O)[C@@H]2C[C@H](Oc3ccccc3)CN2)ccc1F [Example 165, (2S,4S)—N—((S)-1-(3-(3-carbamoyl-4-fluorophenyl)pyridin-2-yl)-2-(3,5-difluorophenyl)ethyl)-4-phenoxypyrrolidine-2-carboxamide] | 52500 | 0 |
| Cc1ccc(C)c2c1NC(=O)C2CC(=O)N[C@@H](Cc1cc(F)cc(F)c1)c1ncccc1-c1ccc(F)c(C(N)=O)c1 (stereo partly drawn) [Example 259, 5-(2-((1S)-2-(3,5-difluorophenyl)-1-(2-(4,7-dimethyl-2-oxoindolin-3-yl)acetamido)ethyl)pyridin-3-yl)-2-fluorobenzamide] | 47600 | 2 |
| COc1cccc(CC(=O)N[C@@H](Cc2cc(F)cc(F)c2)c2ncccc2-c2cccc(C(N)=O)c2)c1 [Example 601, (S)-3-(2-(2-(3,5-difluorophenyl)-1-(2-(3-methoxyphenyl)acetamido)ethyl)pyridin-3-yl)benzamide] | 41900 | 22 |
| NC(=O)c1cc(-c2cccnc2[C@H](Cc2cc(F)cc(F)c2)NC(=O)Cn2nc(C(F)(F)F)c3c2CC(O)CC3)ccc1F (stereo partly drawn) [Example 325, 5-(2-((1S)-2-(3,5-difluorophenyl)-1-(2-(6-hydroxy-3-(trifluoromethyl)-4,5,6,7-tetrahydro-1H-indazol-1-yl)acetamido)ethyl)pyridin-3-yl)-2-fluorobenzamide] | 46100 | 86 |
| O=C(Cn1nc(C(F)F)c2c1C1CC1CC2)NC(Cc1cc(F)cc(F)c1)c1ncncc1-c1cnc2[nH]ccc2c1 (centres unmarked) [Example 299D, N-(1-(5-(1H-pyrrolo[2,3-b]pyridin-5-yl)pyrimidin-4-yl)-2-(3,5-difluorophenyl)ethyl)-2-(3-(difluoromethyl)-5,5a,6,6a-tetrahydrocyclopropa[g]indazol-1(4H)-yl)acetamide] | 19500 | 100 |
| CC(C(=O)N[C@@H](Cc1cc(F)cc(F)c1)c1ncccc1-c1ccc(F)c(C(N)=O)c1)n1nc(C(F)(F)F)cc1C1CC1 (stereo partly drawn) [Example 519, 5-(2-((1S)-1-(2-(5-cyclopropyl-3-(trifluoromethyl)-1H-pyrazol-1-yl)propanamido)-2-(3,5-difluorophenyl)ethyl)pyridin-3-yl)-2-fluorobenzamide] | 20300 | 65 |
